Assay results taken from the NIST ThermoML archive (doi:10.1021/je500381c).
Numbers after ± are expanded uncertainties.

Assay: xn = mol fraction of the nth substance listed
Settings: for mass density / viscosity: 100 kPa, Liquid; for mass density: Vibrating tube method; for surface tension liquid-gas: Drop volume

OCC1CCCCC1 [cyclohexylmethanol] + CC12CC3CC(C1)CC(C)(C3)C2
Settings | mass density [kg/m3] | surface tension liquid-gas [mN/m] | viscosity [mPa·s]
293.15 K, x1 = 0.1027 | 903.21 ± 0.12 | – | 4.113 ± 0.064
293.15 K, x1 = 0.1995 | 905.07 ± 0.12 | – | 4.718 ± 0.073
293.15 K, x1 = 0.3012 | 907.15 ± 0.12 | – | 5.602 ± 0.087
293.15 K, x1 = 0.4004 | 909.76 ± 0.12 | – | 6.901 ± 0.11
293.15 K, x1 = 0.4973 | 912.51 ± 0.12 | – | 8.435 ± 0.13
293.15 K, x1 = 0.6008 | 915.54 ± 0.12 | – | 11.2 ± 0.17
293.15 K, x1 = 0.7002 | 918.7 ± 0.12 | – | 14.93 ± 0.23
293.15 K, x1 = 0.7892 | 922.49 ± 0.12 | – | 21.14 ± 0.33
293.15 K, x1 = 0.9 | 925.92 ± 0.13 | – | 28.69 ± 0.45
293.15 K, x1 = 1 | 929.76 ± 0.13 | – | 37.75 ± 0.59
298.15 K, x1 = 0.1002 | – | 28.2 ± 0.16 | –
298.15 K, x1 = 0.1027 | 899.59 ± 0.12 | – | 3.615 ± 0.056
298.15 K, x1 = 0.1995 | 901.44 ± 0.12 | 28.36 ± 0.16 | 4.111 ± 0.064
298.15 K, x1 = 0.2996 | – | 28.56 ± 0.16 | –
298.15 K, x1 = 0.3012 | 903.51 ± 0.12 | – | 4.827 ± 0.075
298.15 K, x1 = 0.4004 | 906.13 ± 0.12 | 28.74 ± 0.16 | 5.842 ± 0.091
298.15 K, x1 = 0.4973 | 908.85 ± 0.12 | 28.95 ± 0.16 | 7.114 ± 0.11
298.15 K, x1 = 0.6008 | 911.97 ± 0.12 | 29.35 ± 0.16 | 9.121 ± 0.14
298.15 K, x1 = 0.7002 | 915.07 ± 0.12 | 29.83 ± 0.17 | 11.9 ± 0.19
298.15 K, x1 = 0.7892 | 918.88 ± 0.13 | – | 16.63 ± 0.26
298.15 K, x1 = 0.7999 | – | 30.46 ± 0.17 | –
298.15 K, x1 = 0.9 | 922.36 ± 0.13 | 31.33 ± 0.17 | 22.11 ± 0.35
298.15 K, x1 = 1 | 926.25 ± 0.13 | 32.43 ± 0.18 | 28.67 ± 0.45
303.15 K, x1 = 0.1027 | 895.96 ± 0.12 | – | 3.204 ± 0.05
303.15 K, x1 = 0.1995 | 897.78 ± 0.12 | – | 3.618 ± 0.056
303.15 K, x1 = 0.3012 | 899.85 ± 0.12 | – | 4.192 ± 0.065
303.15 K, x1 = 0.4004 | 902.45 ± 0.12 | – | 5.005 ± 0.078
303.15 K, x1 = 0.4973 | 905.16 ± 0.12 | – | 5.993 ± 0.093
303.15 K, x1 = 0.6008 | 908.3 ± 0.12 | – | 7.528 ± 0.12
303.15 K, x1 = 0.7002 | 911.44 ± 0.13 | – | 9.63 ± 0.15
303.15 K, x1 = 0.7892 | 915.23 ± 0.13 | – | 13.35 ± 0.21
303.15 K, x1 = 0.9 | 918.75 ± 0.13 | – | 17.36 ± 0.27
303.15 K, x1 = 1 | 922.71 ± 0.13 | – | 22.34 ± 0.35
308.15 K, x1 = 0.1027 | 892.31 ± 0.12 | – | 2.857 ± 0.044
308.15 K, x1 = 0.1995 | 894.11 ± 0.12 | – | 3.194 ± 0.05
308.15 K, x1 = 0.3012 | 896.17 ± 0.12 | – | 3.666 ± 0.057
308.15 K, x1 = 0.4004 | 898.75 ± 0.12 | – | 4.326 ± 0.067
308.15 K, x1 = 0.4973 | 901.46 ± 0.12 | – | 5.097 ± 0.079
308.15 K, x1 = 0.6008 | 904.6 ± 0.13 | – | 6.204 ± 0.097
308.15 K, x1 = 0.7002 | 907.77 ± 0.13 | – | 7.907 ± 0.12
308.15 K, x1 = 0.7892 | 911.57 ± 0.13 | – | 10.82 ± 0.17
308.15 K, x1 = 0.9 | 915.12 ± 0.13 | – | 13.92 ± 0.22
308.15 K, x1 = 1 | 919.14 ± 0.13 | – | 17.57 ± 0.28
313.15 K, x1 = 0.1027 | 888.65 ± 0.12 | – | 2.56 ± 0.04
313.15 K, x1 = 0.1995 | 890.42 ± 0.12 | – | 2.841 ± 0.044
313.15 K, x1 = 0.3012 | 892.47 ± 0.12 | – | 3.229 ± 0.05
313.15 K, x1 = 0.4004 | 895.03 ± 0.12 | – | 3.764 ± 0.059
313.15 K, x1 = 0.4973 | 897.73 ± 0.13 | – | 4.377 ± 0.068
313.15 K, x1 = 0.6008 | 900.87 ± 0.13 | – | 5.311 ± 0.083
313.15 K, x1 = 0.7002 | 904.09 ± 0.13 | – | 6.578 ± 0.1
313.15 K, x1 = 0.7892 | 907.87 ± 0.13 | – | 8.883 ± 0.14
313.15 K, x1 = 0.9 | 911.45 ± 0.13 | – | 11.3 ± 0.18
313.15 K, x1 = 1 | 915.53 ± 0.13 | – | 14.09 ± 0.22
318.15 K, x1 = 0.1027 | 884.98 ± 0.12 | – | 2.305 ± 0.036
318.15 K, x1 = 0.1995 | 886.71 ± 0.12 | – | 2.539 ± 0.04
318.15 K, x1 = 0.3012 | 888.75 ± 0.12 | – | 2.859 ± 0.045
318.15 K, x1 = 0.4004 | 891.29 ± 0.13 | – | 3.299 ± 0.051
318.15 K, x1 = 0.4973 | 893.98 ± 0.13 | – | 3.787 ± 0.059
318.15 K, x1 = 0.6008 | 897.11 ± 0.13 | – | 4.529 ± 0.071
318.15 K, x1 = 0.7002 | 900.37 ± 0.13 | – | 5.508 ± 0.086
318.15 K, x1 = 0.7892 | 904.14 ± 0.13 | – | 7.34 ± 0.12
318.15 K, x1 = 0.9 | 907.74 ± 0.13 | – | 9.262 ± 0.14
318.15 K, x1 = 1 | 911.88 ± 0.13 | – | 11.43 ± 0.18
323.15 K, x1 = 0.1027 | 881.29 ± 0.12 | – | 2.085 ± 0.033
323.15 K, x1 = 0.1995 | 882.99 ± 0.13 | – | 2.28 ± 0.036
323.15 K, x1 = 0.3012 | 885.01 ± 0.13 | – | 2.546 ± 0.04
323.15 K, x1 = 0.4004 | 887.53 ± 0.13 | – | 2.911 ± 0.045
323.15 K, x1 = 0.4973 | 890.21 ± 0.13 | – | 3.302 ± 0.052
323.15 K, x1 = 0.6008 | 893.33 ± 0.13 | – | 3.896 ± 0.061
323.15 K, x1 = 0.7002 | 896.61 ± 0.13 | – | 4.604 ± 0.072
323.15 K, x1 = 0.7892 | 900.37 ± 0.13 | – | 6.145 ± 0.096
323.15 K, x1 = 0.9 | 904 ± 0.13 | – | 7.642 ± 0.12
323.15 K, x1 = 1 | 908.19 ± 0.13 | – | 9.354 ± 0.15
328.15 K, x1 = 0.1027 | 877.59 ± 0.13 | – | 1.894 ± 0.03
328.15 K, x1 = 0.1995 | 879.24 ± 0.13 | – | 2.057 ± 0.032
328.15 K, x1 = 0.3012 | 881.25 ± 0.13 | – | 2.279 ± 0.036
328.15 K, x1 = 0.4004 | 883.75 ± 0.13 | – | 2.58 ± 0.04
328.15 K, x1 = 0.4973 | 886.41 ± 0.13 | – | 2.898 ± 0.045
328.15 K, x1 = 0.6008 | 889.51 ± 0.13 | – | 3.375 ± 0.053
328.15 K, x1 = 0.7002 | 892.81 ± 0.13 | – | 3.992 ± 0.062
328.15 K, x1 = 0.7892 | 896.56 ± 0.13 | – | 5.076 ± 0.079
328.15 K, x1 = 0.9 | 900.21 ± 0.13 | – | 6.342 ± 0.099
328.15 K, x1 = 1 | 904.45 ± 0.13 | – | 7.766 ± 0.12
333.15 K, x1 = 0.1027 | 873.88 ± 0.13 | – | 1.727 ± 0.027
333.15 K, x1 = 0.1995 | 875.48 ± 0.13 | – | 2.105 ± 0.033
333.15 K, x1 = 0.3012 | 877.47 ± 0.13 | – | 2.048 ± 0.032
333.15 K, x1 = 0.4004 | 879.94 ± 0.13 | – | 2.3 ± 0.036
333.15 K, x1 = 0.4973 | 882.58 ± 0.13 | – | 2.56 ± 0.04
333.15 K, x1 = 0.6008 | 885.67 ± 0.13 | – | 2.946 ± 0.046
333.15 K, x1 = 0.7002 | 888.98 ± 0.13 | – | 3.443 ± 0.054
333.15 K, x1 = 0.7892 | 892.71 ± 0.13 | – | 4.253 ± 0.067
333.15 K, x1 = 0.9 | 896.38 ± 0.13 | – | 5.984 ± 0.094
333.15 K, x1 = 1 | 900.67 ± 0.13 | – | 6.462 ± 0.1
